The target in this experiment is dopamine D1 receptor (Cyprinus carpio). Briefly: Concentration required to inhibit 50% dopamine receptor D1 activity using cell free homogenate of carp retina.
By EC50 is commonly meant the midpoint of the concentration-response curve. A higher EC50 goes with a need for much substance. `NC[C@@H]1OC(c2ccc(Br)cc2)Cc2c1ccc(O)c2O` (stereo partly specified) registered a half-maximal effective concentration (EC50) of 0.001 µM.
For `NC[C@@H]1OC(CCc2ccccc2)Cc2c1ccc(O)c2O` (stereo partly specified) the value was 0.0052 µM.
In turn, `NC[C@@H]1OC(COc2ccccc2)Cc2c1ccc(O)c2O` (stereo partly specified) registered an EC50 of 0.024 µM.
Turning to `OCCCNC[C@@H]1OC(C2CCCCC2)Cc2c1ccc(O)c2O` (stereo partly specified), the EC50 worked out at 1.74 µM.
Take `CCCCC1Cc2c(ccc(O)c2O)[C@H](CN)O1` (stereo partly specified): the midpoint of the response, the EC50, lay at 0.0063 µM.
Turning to `Oc1ccc2c(c1O)CC(C1CCCCC1)O[C@H]2CNC1CC1` (stereo partly specified), a half-maximal response (EC50) required 0.124 µM.
The same measure for `COc1cccc(C2Cc3c(ccc(O)c3O)[C@H](CN)O2)c1` (stereo partly specified): 0.0064 µM.
Compound `C#CCNC[C@@H]1OC(C2CCCCC2)Cc2c1ccc(O)c2O` (stereo partly specified) gave an EC50 of 0.013 µM.
Compound `NC[C@@H]1OC2(CCCCC2)Cc2c1ccc(O)c2O` had an EC50 of 0.069 µM.
As for `CCCCCCC1Cc2c(ccc(O)c2O)[C@H](CN)O1` (stereo partly specified), the EC50 worked out at 0.014 µM.
With `NC[C@@H]1OC(CC2CCCC2)Cc2c1ccc(O)c2O` (stereo partly specified), the EC50 is 0.0067 µM. This EC50 is about 2.1-fold lower than that of the compound before.
In turn, `NC[C@@H]1OC(Cc2ccccc2)Cc2c1ccc(O)c2O` (stereo partly specified) yielded an EC50 of 0.034 µM.
Compound `NC[C@@H]1OC(c2ccc(I)cc2)Cc2c1ccc(O)c2O` (stereo partly specified) showed an EC50 of 0.002 µM.
Consider `NC[C@@H]1OC(COCc2ccccc2)Cc2c1ccc(O)c2O` (stereo partly specified), for which the EC50 was determined as 0.089 µM.
`CC[C@@H]1Cc2c(ccc(O)c2O)[C@H](CN)O1` yielded an EC50 of 0.142 µM.
The same measure for `CC[C@H]1Cc2c(ccc(O)c2O)[C@H](CN)O1`: 0.232 µM.
